According to ChEMBL document CHEMBL4477207, “Discovery of Novel 3-Quinoline Carboxamides as Potent, Selective, and Orally Bioavailable Inhibitors of Ataxia Telangiectasia Mutated (ATM) Kinase” (J Med Chem, 2016):

Experiments:
[1] = in vitro; conditions: rat, hepatocytes
[2] = target: Serine/threonine-protein kinase ATR (Homo sapiens, UniProt Q13535); assay: Inhibition of ATR in human HT-29 cells assessed as reduction in Chk1 phosphorylation at Ser-345 residue after 60 mins in presence of 4-nitroquinoline-1-oxide by Hoechst 33258 staining based plate reader analysis; type: cell-based
[3] = physchem; conditions: octanol/buffer, pH 7.4
[4] = target: Serine-protein kinase ATM (Homo sapiens, UniProt Q13315); assay: Inhibition of ATM phosphorylation at Ser-1981 residue in human HT-29 cells incubated for 1 hr followed by X-ray irradiation by Hoechst staining based fluorescence plate reader analysis; type: cell-based
[5] = in vitro; conditions: human, hepatocytes
[6] = target: Voltage-gated inwardly rectifying potassium channel KCNH2 (Homo sapiens, UniProt Q12809)
[7] = target: Phosphatidylinositol 4,5-bisphosphate 3-kinase catalytic subunit alpha isoform (Homo sapiens, UniProt P42336); assay: Inhibition of human recombinant PI3Kalpha using PIP2/ATP as substrate incubated for 20 mins followed by substrate addition by Kinase Glo reagent based luminescence assay
[8] = target: Phosphatidylinositol 4,5-bisphosphate 3-kinase catalytic subunit gamma isoform (Homo sapiens, UniProt P48736); assay: Inhibition of human recombinant PI3Kgamma using PIP2/ATP as substrate incubated for 20 mins followed by substrate addition by Kinase Glo reagent based luminescence assay
[9] = target: Serine/threonine-protein kinase mTOR (Homo sapiens, UniProt P42345); assay: Inhibition of C-terminal FLAG-tagged recombinant mTOR (1362 to 2549 residues) (unknown origin) using Biotin-Ahx-Lys-Lys-Ala-Asn-Gln-Val-Phe-Leu-Gly-Phe-Thr-Tyr-Val-Ala-Pro-Ser-Val-Leu-Glu-Ser-Val-Lys-Glu-NH2 as substrate after 90 mins by AlphaScreen assay
[10] = target: Phosphatidylinositol 4,5-bisphosphate 3-kinase catalytic subunit beta isoform (Homo sapiens, UniProt P42338); assay: Inhibition of human recombinant PI3Kbeta using PIP2/ATP as substrate incubated for 20 mins followed by substrate addition by Kinase Glo reagent based luminescence assay
[11] = target: Vascular endothelial growth factor receptor 2 (Homo sapiens, UniProt P35968); assay: Inhibition of KDR (unknown origin)
[12] = target: Glycogen synthase kinase-3 beta (Homo sapiens, UniProt P49841); assay: Inhibition of GSK3beta (unknown origin)
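For logD in this document: determined by the shake flask method.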

Chain of Voltage-gated inwardly rectifying potassium channel KCNH2 (Q12809 whole entry, canonical isoform): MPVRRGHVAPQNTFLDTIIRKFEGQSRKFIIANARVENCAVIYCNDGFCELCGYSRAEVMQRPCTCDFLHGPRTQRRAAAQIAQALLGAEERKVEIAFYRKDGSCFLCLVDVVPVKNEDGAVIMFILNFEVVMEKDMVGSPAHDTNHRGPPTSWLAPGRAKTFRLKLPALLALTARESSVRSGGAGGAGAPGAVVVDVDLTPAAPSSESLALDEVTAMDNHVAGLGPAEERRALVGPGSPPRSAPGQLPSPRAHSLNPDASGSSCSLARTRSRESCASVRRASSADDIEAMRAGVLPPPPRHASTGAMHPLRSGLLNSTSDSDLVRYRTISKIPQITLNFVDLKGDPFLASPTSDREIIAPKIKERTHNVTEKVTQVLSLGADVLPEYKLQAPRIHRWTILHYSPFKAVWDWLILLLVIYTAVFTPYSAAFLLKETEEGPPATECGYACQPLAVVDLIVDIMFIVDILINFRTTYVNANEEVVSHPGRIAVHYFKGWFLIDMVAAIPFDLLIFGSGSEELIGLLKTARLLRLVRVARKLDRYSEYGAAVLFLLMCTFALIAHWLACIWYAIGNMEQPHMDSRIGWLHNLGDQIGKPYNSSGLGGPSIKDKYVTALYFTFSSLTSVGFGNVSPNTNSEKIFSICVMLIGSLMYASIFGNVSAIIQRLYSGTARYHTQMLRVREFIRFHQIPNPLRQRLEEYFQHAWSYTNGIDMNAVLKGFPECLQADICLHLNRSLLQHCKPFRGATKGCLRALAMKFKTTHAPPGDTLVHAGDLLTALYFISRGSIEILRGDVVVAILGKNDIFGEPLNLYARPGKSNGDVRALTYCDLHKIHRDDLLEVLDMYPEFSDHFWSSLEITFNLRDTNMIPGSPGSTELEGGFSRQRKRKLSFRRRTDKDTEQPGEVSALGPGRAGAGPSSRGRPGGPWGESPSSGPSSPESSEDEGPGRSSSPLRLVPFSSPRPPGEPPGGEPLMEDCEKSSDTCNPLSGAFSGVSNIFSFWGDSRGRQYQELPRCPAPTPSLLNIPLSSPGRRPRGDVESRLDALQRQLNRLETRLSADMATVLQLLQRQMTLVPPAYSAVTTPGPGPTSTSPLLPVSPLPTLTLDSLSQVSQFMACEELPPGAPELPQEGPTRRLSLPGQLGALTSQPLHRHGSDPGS
Chain of Serine-protein kinase ATM (Q13315 whole entry): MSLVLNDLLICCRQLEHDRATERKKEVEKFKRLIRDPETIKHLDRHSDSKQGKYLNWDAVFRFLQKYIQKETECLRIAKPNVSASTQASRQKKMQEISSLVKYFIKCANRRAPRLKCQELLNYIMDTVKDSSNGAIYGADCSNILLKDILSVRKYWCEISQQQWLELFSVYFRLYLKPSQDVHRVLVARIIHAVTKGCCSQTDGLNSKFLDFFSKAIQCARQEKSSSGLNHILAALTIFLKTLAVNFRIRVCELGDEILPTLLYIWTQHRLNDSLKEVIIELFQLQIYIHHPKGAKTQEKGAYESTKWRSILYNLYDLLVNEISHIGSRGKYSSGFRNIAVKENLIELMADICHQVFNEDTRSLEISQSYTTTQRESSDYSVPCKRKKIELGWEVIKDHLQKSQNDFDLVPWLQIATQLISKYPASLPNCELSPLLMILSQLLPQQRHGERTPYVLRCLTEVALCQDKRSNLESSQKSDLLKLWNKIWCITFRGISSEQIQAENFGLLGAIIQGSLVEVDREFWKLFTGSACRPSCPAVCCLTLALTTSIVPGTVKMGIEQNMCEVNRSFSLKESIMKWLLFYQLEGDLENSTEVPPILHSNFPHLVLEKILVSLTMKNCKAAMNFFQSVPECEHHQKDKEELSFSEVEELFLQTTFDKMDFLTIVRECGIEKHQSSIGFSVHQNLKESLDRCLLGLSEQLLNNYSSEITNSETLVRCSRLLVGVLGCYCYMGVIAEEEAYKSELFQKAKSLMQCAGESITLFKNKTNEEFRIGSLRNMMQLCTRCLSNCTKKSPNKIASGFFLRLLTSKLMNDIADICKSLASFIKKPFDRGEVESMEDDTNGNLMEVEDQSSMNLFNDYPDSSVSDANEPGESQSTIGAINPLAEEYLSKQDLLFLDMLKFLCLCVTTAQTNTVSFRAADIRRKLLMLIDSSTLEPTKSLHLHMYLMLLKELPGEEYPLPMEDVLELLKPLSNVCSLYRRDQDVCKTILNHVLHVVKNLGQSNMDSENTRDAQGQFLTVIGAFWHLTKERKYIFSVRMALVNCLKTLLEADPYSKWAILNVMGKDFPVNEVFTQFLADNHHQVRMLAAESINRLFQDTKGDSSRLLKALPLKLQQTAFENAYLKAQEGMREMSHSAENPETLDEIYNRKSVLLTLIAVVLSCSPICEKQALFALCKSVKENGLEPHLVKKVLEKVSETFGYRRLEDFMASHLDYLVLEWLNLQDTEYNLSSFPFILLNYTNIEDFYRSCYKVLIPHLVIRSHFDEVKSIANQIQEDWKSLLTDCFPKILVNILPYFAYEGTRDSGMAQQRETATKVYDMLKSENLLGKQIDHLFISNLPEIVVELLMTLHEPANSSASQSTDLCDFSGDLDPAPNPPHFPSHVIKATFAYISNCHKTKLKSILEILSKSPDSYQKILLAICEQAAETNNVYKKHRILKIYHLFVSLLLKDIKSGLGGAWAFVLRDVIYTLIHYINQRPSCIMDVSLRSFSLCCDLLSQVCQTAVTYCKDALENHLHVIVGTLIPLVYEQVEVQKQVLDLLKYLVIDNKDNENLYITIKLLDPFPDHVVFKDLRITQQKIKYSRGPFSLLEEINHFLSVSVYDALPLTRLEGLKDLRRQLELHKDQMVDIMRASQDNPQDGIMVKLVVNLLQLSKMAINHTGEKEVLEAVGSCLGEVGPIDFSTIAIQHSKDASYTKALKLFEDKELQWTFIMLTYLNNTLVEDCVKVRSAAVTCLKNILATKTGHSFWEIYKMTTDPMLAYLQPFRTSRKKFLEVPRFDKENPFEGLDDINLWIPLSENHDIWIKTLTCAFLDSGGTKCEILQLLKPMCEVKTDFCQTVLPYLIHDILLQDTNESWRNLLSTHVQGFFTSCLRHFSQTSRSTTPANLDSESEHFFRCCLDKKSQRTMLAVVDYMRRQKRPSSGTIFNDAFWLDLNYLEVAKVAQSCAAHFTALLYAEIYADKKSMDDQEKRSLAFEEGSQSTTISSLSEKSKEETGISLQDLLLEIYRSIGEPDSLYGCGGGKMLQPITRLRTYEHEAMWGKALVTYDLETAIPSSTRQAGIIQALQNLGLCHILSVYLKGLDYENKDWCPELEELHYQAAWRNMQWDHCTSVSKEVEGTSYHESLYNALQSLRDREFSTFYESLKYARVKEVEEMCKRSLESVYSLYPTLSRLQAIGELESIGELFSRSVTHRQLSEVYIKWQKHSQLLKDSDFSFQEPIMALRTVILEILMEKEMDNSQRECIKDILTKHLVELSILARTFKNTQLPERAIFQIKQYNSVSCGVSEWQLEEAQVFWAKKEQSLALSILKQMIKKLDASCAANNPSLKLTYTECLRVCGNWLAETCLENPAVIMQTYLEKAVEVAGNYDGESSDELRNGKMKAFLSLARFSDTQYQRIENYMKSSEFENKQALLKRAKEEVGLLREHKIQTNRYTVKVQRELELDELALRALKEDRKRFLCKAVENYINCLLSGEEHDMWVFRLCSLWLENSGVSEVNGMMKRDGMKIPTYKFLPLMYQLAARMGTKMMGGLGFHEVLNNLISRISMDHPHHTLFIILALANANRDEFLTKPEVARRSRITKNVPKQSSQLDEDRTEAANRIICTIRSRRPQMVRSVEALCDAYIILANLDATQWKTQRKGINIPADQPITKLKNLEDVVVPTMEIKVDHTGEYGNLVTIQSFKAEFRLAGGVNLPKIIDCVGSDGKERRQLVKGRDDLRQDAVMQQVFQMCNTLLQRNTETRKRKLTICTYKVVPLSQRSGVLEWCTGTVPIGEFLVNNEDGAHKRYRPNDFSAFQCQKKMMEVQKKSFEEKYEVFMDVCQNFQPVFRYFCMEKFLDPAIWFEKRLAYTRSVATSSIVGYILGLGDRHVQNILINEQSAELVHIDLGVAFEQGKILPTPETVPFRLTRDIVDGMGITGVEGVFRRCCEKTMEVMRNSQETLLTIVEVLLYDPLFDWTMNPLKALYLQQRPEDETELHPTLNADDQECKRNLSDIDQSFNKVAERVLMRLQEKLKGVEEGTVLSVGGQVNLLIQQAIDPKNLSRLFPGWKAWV
Chain of Glycogen synthase kinase-3 beta (P49841 whole entry): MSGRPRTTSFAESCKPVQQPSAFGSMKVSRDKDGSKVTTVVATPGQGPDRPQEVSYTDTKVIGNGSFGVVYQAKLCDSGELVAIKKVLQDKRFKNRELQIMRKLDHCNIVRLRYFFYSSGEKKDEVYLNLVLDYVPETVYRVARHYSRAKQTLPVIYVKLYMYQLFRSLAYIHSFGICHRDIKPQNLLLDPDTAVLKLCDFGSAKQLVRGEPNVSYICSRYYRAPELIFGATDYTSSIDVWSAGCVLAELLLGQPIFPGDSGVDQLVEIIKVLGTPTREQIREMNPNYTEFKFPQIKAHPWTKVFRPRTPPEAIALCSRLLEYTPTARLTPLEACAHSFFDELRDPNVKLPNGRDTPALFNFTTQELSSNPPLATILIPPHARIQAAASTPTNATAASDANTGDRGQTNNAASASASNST

Q: For `NC(=O)c1cnc2ccc(-c3cccnc3)cc2c1NC1CCCCC1`, which hepatocyte CLint at 1.5 h [1] is on record?
A: 70 µL/min/1e6 cells

Q: And the IC50 [2]?
A: 3.2 µM

Q: And the logD [3]?
A: 3.8

Q: And the IC50 [4]?
A: 132 nM

Q: What about the hepatocyte CLint at 1.5 h [5] of the same compound?
A: 34 µL/min/1e6 cells

Q: Which hepatocyte CLint at 1.5 h [1] does the source give for `NC(=O)c1cnc2ccc(-c3cccnc3)cc2c1NC1CCOCC1` here?
A: 8.5 µL/min/1e6 cells

Q: What about the IC50 [2] of the same compound?
A: 3.1 µM

Q: And the logD [3]?
A: 1.9

Q: And the IC50 [4]?
A: 954 nM

Q: And the hepatocyte CLint at 1.5 h [5]?
A: < 4.2 µL/min/1e6 cells

Q: With `CCC(CC)CNc1c(C(N)=O)cnc2ccc(-c3ccc(CS(C)(=O)=O)cc3)cc12` as the compound, how does the hepatocyte CLint at 1.5 h [1] read?
A: 210 µL/min/1e6 cells

Q: What about the IC50 [6] of the same compound?
A: 2100 nM

Q: What about the IC50 [2] of the same compound?
A: > 30 µM

Q: And the logD [3]?
A: 3.5

Q: What about the IC50 [4] of the same compound?
A: 70 nM

Q: And the hepatocyte CLint at 1.5 h [5]?
A: 23 µL/min/1e6 cells

Q: With `C[C@@H](Nc1ccnc2ccc(-c3cccnc3)cc12)c1ccc(Cl)cc1` as the compound, how does the IC50 [2] read?
A: > 30 µM

Q: And the IC50 [4]?
A: > 30000 nM

Q: With `C[C@H](Nc1c(C(N)=O)cnc2ccc(-c3cccnc3)cc12)c1ccn(C)n1` as the compound, how does the hepatocyte CLint at 1.5 h [1] read?
A: 31 µL/min/1e6 cells

Q: And the IC50 [6]?
A: 11000 nM

Q: And the IC50 [2]?
A: 0.64 µM

Q: What about the logD [3] of the same compound?
A: 2.5

Q: What about the IC50 [4] of the same compound?
A: 124 nM

Q: And the hepatocyte CLint at 1.5 h [5]?
A: 10 µL/min/1e6 cells

Q: Which IC50 [2] does the source give for `NC(=O)c1cnc2c(F)cc(-c3cccnc3)cc2c1NC1CCOCC1` here?
A: > 30 µM

Q: And the IC50 [4]?
A: > 30000 nM

Q: With `CCC(CC)CNc1c(C(N)=O)cnc2ccc(-c3cccnn3)cc12` as the compound, how does the IC50 [2] read?
A: > 15 µM

Q: What about the IC50 [4] of the same compound?
A: 571 nM

Q: For `CCC(CC)CNc1c(C(N)=O)cnc2ccc(-c3ccc(C)nc3)cc12`, which hepatocyte CLint at 1.5 h [1] is on record?
A: 150 µL/min/1e6 cells

Q: What about the IC50 [2] of the same compound?
A: 5.5 µM

Q: What about the logD [3] of the same compound?
A: > 4.3

Q: What about the IC50 [4] of the same compound?
A: 50 nM

Q: And the hepatocyte CLint at 1.5 h [5]?
A: 7.3 µL/min/1e6 cells

Q: Which hepatocyte CLint at 1.5 h [1] does the source give for `NC(=O)c1cnc2cc(Cl)c(-c3cccnc3)cc2c1NC1CCOCC1` here?
A: 15 µL/min/1e6 cells

Q: And the IC50 [6]?
A: 1200 nM

Q: What about the IC50 [2] of the same compound?
A: > 30 µM

Q: What about the logD [3] of the same compound?
A: 2.7

Q: And the IC50 [4]?
A: 3250 nM

Q: And the hepatocyte CLint at 1.5 h [5]?
A: 4.3 µL/min/1e6 cells

Q: Which results are given for `NC(=O)c1cnc2cc(F)c(-c3cccnc3)cc2c1NC1CCOCC1`?
A: hepatocyte CLint at 1.5 h [1]: 13 µL/min/1e6 cells; IC50 [2]: > 30 µM; logD [3]: 2.1; IC50 [4]: 606 nM; hepatocyte CLint at 1.5 h [5]: 5.5 µL/min/1e6 cells

Q: What does the source list for `COCc1ccc(-c2cc3c(N[C@@H](C)c4nn(C)cc4F)c(C(N)=O)cnc3cc2F)cn1`?
A: hepatocyte CLint at 1.5 h [1]: 4.8 µL/min/1e6 cells; IC50 [2]: > 30 µM; logD [3]: 3; IC50 [4]: 19 nM; hepatocyte CLint at 1.5 h [5]: 5.5 µL/min/1e6 cells

Q: Which IC50 [2] does the source give for `C[C@@H](Nc1c(C(=O)O)cnc2ccc(-c3cccnc3)cc12)c1ccc(Cl)cc1` here?
A: > 30 µM

Q: And the IC50 [4]?
A: > 30000 nM

Q: For `C[C@H](Nc1c(C(N)=O)cnc2ccc(-c3cccnc3)cc12)C1CCOCC1`, which hepatocyte CLint at 1.5 h [1] is on record?
A: 38 µL/min/1e6 cells

Q: What about the IC50 [6] of the same compound?
A: 3600 nM

Q: What about the IC50 [2] of the same compound?
A: > 14 µM

Q: What about the logD [3] of the same compound?
A: 2.5

Q: What about the IC50 [4] of the same compound?
A: 168 nM

Q: And the hepatocyte CLint at 1.5 h [5]?
A: 14 µL/min/1e6 cells

Q: Which results are given for `CCC(CC)CNc1c(C(N)=O)c(C)nc2ccc(-c3cccnc3)cc12`?
A: hepatocyte CLint at 1.5 h [1]: 43 µL/min/1e6 cells; IC50 [6]: 680 nM; IC50 [2]: > 30 µM; logD [3]: 2.7; IC50 [4]: > 30000 nM; hepatocyte CLint at 1.5 h [5]: 6 µL/min/1e6 cells

Q: Which hepatocyte CLint at 1.5 h [1] does the source give for `CCC(CC)CNc1c(C(N)=O)cnc2ccc(-c3ccc(CO)nc3)cc12` here?
A: > 300 µL/min/1e6 cells

Q: What about the IC50 [6] of the same compound?
A: 3100 nM

Q: What about the IC50 [2] of the same compound?
A: > 13 µM

Q: What about the logD [3] of the same compound?
A: 3.7

Q: And the IC50 [4]?
A: 87 nM

Q: And the hepatocyte CLint at 1.5 h [5]?
A: 150 µL/min/1e6 cells

Q: Which hepatocyte CLint at 1.5 h [1] does the source give for `CCC(CC)CNc1c(C(N)=O)cnc2ccc(-c3ccc(COC)cc3)cc12` here?
A: 76 µL/min/1e6 cells

Q: And the IC50 [6]?
A: 18000 nM

Q: What about the IC50 [2] of the same compound?
A: > 30 µM

Q: And the logD [3]?
A: 4.1

Q: What about the IC50 [4] of the same compound?
A: 373 nM

Q: And the hepatocyte CLint at 1.5 h [5]?
A: 21 µL/min/1e6 cells

Q: For `CCC(CC)CNc1c(C(N)=O)cnc2ccc(-c3cncnc3)cc12`, which hepatocyte CLint at 1.5 h [1] is on record?
A: 140 µL/min/1e6 cells

Q: What about the IC50 [2] of the same compound?
A: > 18 µM

Q: And the logD [3]?
A: 3.3

Q: And the IC50 [4]?
A: 1840 nM

Q: What about the hepatocyte CLint at 1.5 h [5] of the same compound?
A: 46 µL/min/1e6 cells

Q: Which IC50 [7] does the source give for `O=c1cc(-c2cccc3c2Sc2ccccc2S3)oc(N2CCOCC2)c1` [KU-55933] here?
A: 458 nM

Q: What about the IC50 [8] of the same compound?
A: > 1000 nM

Q: What about the IC50 [9] of the same compound?
A: 5.58 µM

Q: What about the hepatocyte CLint at 1.5 h [1] of the same compound?
A: 230 µL/min/1e6 cells

Q: And the IC50 [2]?
A: > 30 µM

Q: What about the logD [3] of the same compound?
A: 4

Q: What about the IC50 [10] of the same compound?
A: 133 nM

Q: What about the hepatocyte CLint at 1.5 h [5] of the same compound?
A: 33 µL/min/1e6 cells

Q: For `CCC(CC)CNc1c(C(N)=O)cnc2ccc(-c3ccc(COC)nc3)cc12`, which IC50 [11] is on record?
A: 82 µM

Q: And the hepatocyte CLint at 1.5 h [1]?
A: 110 µL/min/1e6 cells

Q: And the IC50 [6]?
A: 2500 nM

Q: What about the IC50 [2] of the same compound?
A: > 30 µM

Q: What about the IC50 [12] of the same compound?
A: > 100 µM

Q: What about the logD [3] of the same compound?
A: > 4.3

Q: And the IC50 [4]?
A: 45 nM

Q: And the hepatocyte CLint at 1.5 h [5]?
A: < 6.8 µL/min/1e6 cells

Q: For `C[C@@H](Nc1c(C(N)=O)cnc2ccc(-c3cccnc3)cc12)c1ccn(C)n1`, which hepatocyte CLint at 1.5 h [1] is on record?
A: 120 µL/min/1e6 cells

Q: What about the IC50 [6] of the same compound?
A: 2800 nM

Q: What about the IC50 [2] of the same compound?
A: > 18 µM

Q: What about the logD [3] of the same compound?
A: 2.3

Q: What about the IC50 [4] of the same compound?
A: 1130 nM

Q: And the hepatocyte CLint at 1.5 h [5]?
A: 3.4 µL/min/1e6 cells
